The text below walks through data of patent US5686486A, “4-hydroxy-benzopyran-2-ones and 4-hydroxy-cycloalkyl[b]pyran-2-ones useful to treat retroviral infections” (priority 1995, dated 1997).

The structures appear in SMILES notation. Where “and” joins values, the source holds several entries; their conditions need not be identical. Equal values may be shown once.

Test [1] has as its target T1, HIV-1 protease (Human immunodeficiency virus type 1 group M subtype B, UniProt P04585). Put plainly: biochemical. Particulars: for inhibition at 0.123 µM: read-out: HIV-1 Protease % Inhib, dose 0.123 uM; for inhibition at 0.37 µM: read-out: HIV-1 Protease % Inhib, dose 0.370 uM; for inhibition at 1.1 µM: read-out: HIV-1 Protease % Inhib, dose 1.100 uM; for inhibition at 3.3 µM: read-out: HIV-1 Protease % Inhib, dose 3.300 uM; for inhibition at 10 µM: read-out: HIV-1 Protease % Inhib, dose 10.000 uM; for inhibition at 30 µM: read-out: HIV-1 Protease % Inhib, dose 30.000 uM; for inhibition at 1 µM: read-out: HIV-1 Protease % Inhib, dose 1.000 uM; for inhibition at 100 µM: read-out: HIV-1 Protease % Inhib, dose 100.000 uM. In outline: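 Percent inhibition derived from fluorescent cleavage product separated by filtration after streptavidin-bead capture of intact biotin/FITC substrate. Reaction: enzyme (10 μl, 0.1 μM stock) with substrate (20 μl, 0.2 μM stock) and compound, 1 h at room temperature in dark, pH 5.5 acetate buffer with 1.0 M NaCl and 0.05% NP-40.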

Test [2] has as its target T1, HIV-1 protease. Briefly: biochemical. Particulars: read-out: HIV-1 FITC KI. The protocol: Determination of Ki values utilizes the same materials and equipment employed for percent inhibition studies. Two-fold serial dilutions are made for a given inhibitor from 2, 3 or 4 starting concentrations with a total of 24, 36 or 48 individual inhibitor concentrations. These dilutions are performed utilizing the BioMek robotics system. The assay consists of 10 μL of 40 nM HIV-1 protease, 10 μL of the various inhibitor concentrations, and 20 μL of 200 μM substrate (40 μL total). The reaction is allowed to proceed for 90 min at room temperature, terminated with 40 μL of avidin beads and processed (supra vide). An inhibitor with a known Ki is run in parallel to verify the validity of the assay. The data is processed utilizing a computer program employing a nonlinear least square analysis of the data to generate the Ki values.

Turning to `CCCC1CCCCCc2c1oc(=O)c([C@H](c1ccccc1)C1CC1)c2O` (mixture of isomers) [Example 235, 3-(S)-(Cyclopropylphenylmethyl)-4-hydroxy-10-(R and S)-propyl-5,6,7,8,9,10-hexahydro-cycloocta[b]pyran-2-one], on HIV-1 protease [1], the inhibition at 0.123 µM came to 24.8%, the inhibition at 0.37 µM is 71.8%, the inhibition at 1.1 µM turned out to be 92.7% and the inhibition at 3.3 µM was determined as 105%. At HIV-1 protease [1], the inhibition at 10 µM was found to be 103% and the inhibition at 30 µM was 99.5%. The Ki at HIV-1 protease [2] amounted to 11 nM.
As to `O=c1oc2c(c(O)c1C(c1ccccc1)C1CC1)CCCCCC2CC1CCCO1` (single isomer, unassigned) [Example 170, 3-(Cyclopropylphenylmethyl)-5,6,7,8,9,10-hexahydro-4-hydroxy-10-[(tetrahydro-2-furanyl)methyl]-2H-cycloocta[b]pyran-2-one], at HIV-1 protease [1], the inhibition at 0.123 µM came to 23.2%, the inhibition at 0.37 µM stood at 62.3%, the inhibition at 1.1 µM came out at 92.5% and the inhibition at 3.3 µM stood at 99.3%. Moreover, at HIV-1 protease [1], the inhibition at 10 µM was found to be 107% and the inhibition at 30 µM stood at 111%. The Ki on HIV-1 protease [2] was found to be 31 nM.
Turning to `O=c1oc2c(c(O)c1C(c1ccccc1)C1CC1)CCCCCC2CC1CCCO1` (single isomer, unassigned) [Example 171, 3-(Cyclopropylphenylmethyl)-5,6,7,8,9,10-hexahydro-4-hydroxy-10-[(tetrahydro-2-furanyl)methyl]-2H-cycloocta[b]pyran-2-one], the “HIV-1 Protease % Inhib” value on HIV-1 protease [1] (dose 0.123 uM) stood at 33.13%; on HIV-1 protease [1] (dose 0.370 uM) it was 73.44%; at HIV-1 protease [1] (dose 1.100 uM) it was 96.52%; at HIV-1 protease [1] (dose 3.300 uM) it was 103.16%; at HIV-1 protease [1] (dose 10.000 uM) it was 109.98%; at HIV-1 protease [1] (dose 30.000 uM), 108.64%. Also, the Ki on HIV-1 protease [2] amounted to 23 nM.
Turning to `CC(C)(C)OC(=O)NCC(=O)Nc1cccc(C(c2c(O)c3c(oc2=O)CCCCCC3)C2CC2)c1` (single isomer, unassigned) [Example 238, Carbamic acid, [2-[[3-(R or S)-[cyclopropyl(5,6,7,8,9,10-hexahydro-4-hydroxy-2-oxo-2H-cycloocta[b]pyran-3-yl)methyl]phenyl]amino]-2-oxoethyl]-, 1,1-dimethyl ethyl ester], the “HIV-1 Protease % Inhib” value on HIV-1 protease [1] (dose 0.123 uM) was determined as 30.5%. Moreover, at HIV-1 protease [1], the inhibition at 0.37 µM was determined as 76.4%, the inhibition at 1.1 µM was determined as 96.3%, the inhibition at 3.3 µM is 99.9% and the inhibition at 10 µM was found to be 116%. Also, the inhibition at 30 µM on HIV-1 protease [1] was 115%. For the same compound, the Ki at HIV-1 protease [2] was found to be 13.4 nM.
Turning to `CC(C)(C)OC(=O)NCC(=O)Nc1cccc(C(c2c(O)c3c(oc2=O)CCCCCC3)C2CC2)c1` (single isomer, unassigned) [Example 239, Carbamic acid, [2-[[3-(R or S)-[cyclopropyl(5,6,7,8,9,10)-hexahydro-4-hydroxy-2-oxo-2H-cycloocta[b]pyran-3-yl)methyl]phenyl]amino]-2-oxoethyl]-, 1,1-dimethyl ethyl ester], the “HIV-1 Protease % Inhib” value was 69.55% on HIV-1 protease [1] (dose 0.123 uM); 88.01% on HIV-1 protease [1] (dose 0.370 uM); 98.34% on HIV-1 protease [1] (dose 1.100 uM); 102.72% on HIV-1 protease [1] (dose 3.300 uM); 107.4% at HIV-1 protease [1] (dose 10.000 uM); 100.72% at HIV-1 protease [1] (dose 30.000 uM). In addition, the Ki at HIV-1 protease [2] turned out to be 2.2 nM.
Turning to `CC(C)(C)OC(=O)N[C@@H](Cc1c[nH]cn1)C(=O)Nc1cccc(C(c2c(O)c3c(oc2=O)CCCCCC3)C2CC2)c1` (single isomer, unassigned) [Example 240, Carbamic acid, [2-[[3-(R or S)-[cyclopropyl(5,6,7,8,9,10-hexahydro-4-hydroxy-2-oxo-2H-cycloocta[b]pyran-3-yl)methyl]phenyl]amino]-1-(S)-(1H-imidazol-4-ylmethyl)-2-oxoethyl]-, 1,1 dimethyl ethyl ester], the “HIV-1 Protease % Inhib” value at HIV-1 protease [1] (dose 0.123 uM) is given as 54.87%; at HIV-1 protease [1] (dose 0.370 uM), 89.42%; at HIV-1 protease [1] (dose 1.100 uM), 111.38%; on HIV-1 protease [1] (dose 3.300 uM), 113.39%; at HIV-1 protease [1] (dose 10.000 uM), 114.19%; at HIV-1 protease [1] (dose 30.000 uM), 109.5%. Further, on HIV-1 protease [2], the Ki was 4.2 nM and 5 nM.
Regarding `CC(C)(C)OC(=O)N[C@@H](Cc1c[nH]cn1)C(=O)Nc1cccc(C(c2c(O)c3c(oc2=O)CCCCCC3)C2CC2)c1` (single isomer, unassigned) [Example 241, Carbamic acid, [2-[[3-(R or S)-[Cyclopropyl(5,6,7,8,9,10-hexahydro-4-hydroxy-2-oxo-2H-cycloocta[b]pyran-3-yl)methyl]phenyl]amino]-1-(S)-(1H-imidazol-4-ylmethyl)-2-oxoethyl]-, 1,1 dimethyl ethyl ester], the “HIV-1 Protease % Inhib” value was 81.78% on HIV-1 protease [1] (dose 0.123 uM); 91.77% on HIV-1 protease [1] (dose 0.370 uM); 98.65% on HIV-1 protease [1] (dose 1.100 uM); 101.51% on HIV-1 protease [1] (dose 3.300 uM); 110.04% on HIV-1 protease [1] (dose 10.000 uM); 104.34% on HIV-1 protease [1] (dose 30.000 uM). Also, the Ki on HIV-1 protease [2] was 1.32 nM and 1.9 nM.
For `CCCC(c1cccc(NS(=O)(=O)c2ccc(C#N)cc2)c1)c1c(O)c2c(oc1=O)CCCCCC2` (single isomer, unassigned) [Example 437, (R or S)-Benzenesulfonamide, 4-cyano-N-[3-[1-(5,6,7,8,9,10-hexahydro-4-hydroxy-2-oxo-2H-cycloocta[b]pyran-3-yl)butyl]phenyl]-], at HIV-1 protease [1], the inhibition at 0.123 µM came to 68.1%, the inhibition at 0.37 µM is 87.1%, the inhibition at 1.1 µM turned out to be 103% and the inhibition at 3.3 µM came out at 108%. At HIV-1 protease [1], the inhibition at 10 µM turned out to be 112% and the inhibition at 30 µM amounted to 105%. Also, the Ki on HIV-1 protease [2] was found to be 2.3 nM.
Regarding `CCCC(c1cccc(NS(=O)(=O)c2ccc(C#N)cc2)c1)c1c(O)c2c(oc1=O)CCCCCC2` (single isomer, unassigned) [Example 439, (R or S)-Benzenesulfonamide, 4-cyano-N-[3-[1-(5,6,7,8,9,10-hexahydro-4-hydroxy-2-oxo-2H-cycloocta[b]pyran-3-yl)butyl]phenyl]-], the “HIV-1 Protease % Inhib” value was 60.96% on HIV-1 protease [1] (dose 0.123 uM); 68.15% at HIV-1 protease [1] (dose 0.370 uM); 92.17% at HIV-1 protease [1] (dose 1.100 uM); 92.32% at HIV-1 protease [1] (dose 3.300 uM); 96.45% on HIV-1 protease [1] (dose 10.000 uM); 94.26% on HIV-1 protease [1] (dose 30.000 uM). Moreover, the Ki at HIV-1 protease [2] worked out at 3 nM.
For `O=c1oc2c(c(O)c1C(c1ccccc1)C1CC1)CCCCCC2` (stereo not drawn) [Example 107, 3-(Cyclopropylphenylmethyl)-5,6,7,8,9,10-hexahydro-4-hydroxy-2h-cycloocta[b]pyran-2-one], at HIV-1 protease [1], the inhibition at 1 µM was found to be 90.7%, the inhibition at 10 µM is 101% and the inhibition at 100 µM came to 101%. Moreover, the Ki at HIV-1 protease [2] is 20 nM and 12 nM and 7 nM.
For the compound `CCC(c1ccccc1)c1c(O)c2c(oc1=O)CCCC2` (stereo not drawn) [Example 109, 5,6,7,8-Tetrahydro-4-hydroxy-3-(1-phenylpropyl)-2H-l-benzopyran-2-one], on HIV-1 protease [1], the inhibition at 1 µM is under 10%, the inhibition at 10 µM came to 71.9% and the inhibition at 100 µM was found to be 92%. On HIV-1 protease [2], the Ki was 1090 nM.
For `CCC(c1ccccc1)c1c(O)c2c(oc1=O)CCC2` (stereo not drawn) [Example 111, 6,7-Dihydro-4-hydroxy-3-(1-phenylpropyl)-cyclopenta[b]pyran-2(5H)-one] the same measures were 36.5%, 94.3%, 101% and 700 nM.
On to `O=c1oc2c(c(O)c1C(c1ccccc1)C1CC1)CCCCC2` (stereo not drawn) [Example 112, 3-(Cyclopropylphenylmethyl)-6,7,8,9-tetrahydro-4-hydroxy-cyclohepta[b]pyran-2(5H)-one], for which, on HIV-1 protease [1], the inhibition at 1 µM was determined as 70.1%, the inhibition at 10 µM came out at 102% and the inhibition at 100 µM worked out at 105%. Besides, the Ki on HIV-1 protease [2] stood at 96 nM.
Taken in the same sequence, the figures for `O=c1oc2c(c(O)c1C(c1ccccc1)C1CC1)CCCC2` (stereo not drawn) [Example 115, 3-(Cyclopropylphenylmethyl)-5,6,7,8-tetraphydro-4-hydroxy-2H-1-benzopyran-2-one] were 62.1%, 102%, 129% and 177 nM.
For the compound `O=c1oc2c(c(O)c1C(c1ccccc1)C1CC1)CCCCCCCC2` (stereo not drawn) [Example 116, 3-(Cyclopropylphenylmethyl)-5,6,7,8,9,10,11,12-octahydro-4-hydroxy-2H-cyclodeca[b]pyran-2-one], on HIV-1 protease [1], the inhibition at 1 µM worked out at 23%, the inhibition at 10 µM came out at 65.7% and the inhibition at 100 µM worked out at 102%. Besides, the Ki on HIV-1 protease [2] came to 558 nM.

Usually Ki stands for the equilibrium dissociation constant of an inhibitor or competing ligand from its target.
